Reference: patent US20250263459A1, “STABILIZED PACAP PEPTIDE” (SENJU PHARMACEUTICAL CO., LTD., priority 2019, published 2025)
Non-standard residues stand in square brackets, D forms with d. Residues, ends and D or L forms follow the SMILES beside them. ξ: configuration not given here. *: point of attachment. Ala(1H-tetrazol-5-yl) = N[C@@H](Cc1nnn[nH]1)C(=O)O; ξAla(tetrazol-5-yl) = NC(Cc1nnn[nH]1)C(=O)O; Isobutyryl = CC(C)C(=O)*; Nle = CCCC[C@H](N)C(=O)O; Butyryl = CCCC(=O)*

Legend:
[1] = Stability test 1: survival rate of peptide in phosphate buffer (pH 7.0) after storage, HPLC; format: physicochemical; details: 100 μM peptide
Method: The 1.0 mM peptide solutions were then diluted with phosphate buffer to 100 μM. […] The prepared peptide solutions were incubated for one month or 2 months in a 40° C. thermostatic bath to obtain stored samples.
Using the total weight of the aqueous peptide solution and storage vessel as the specimen weight, measurements were recorded as the specimen weights before storage and the specimen weights after storage under different storage conditions. The empty weight of the storage vessel was also measured, and the moisture permeability was determined by the following formula.
After stirring the standard sample and the stored samples with a vortex mixer, each peptide solution was transferred to an HPLC vial (Deactivated Qsert vial by Waters Co.). Reverse-phase HPLC (HPLC system: Prominence by Shimadzu Corp.) was conducted under the conditions shown in Table 3 below for analysis of the peptide solutions, and chromatograms were obtained.
(§1) The peak area value for the peptide in the chromatogram was calculated, and the survival rate (survival rate before correction for water) was calculated using formula (2). The survival rate after correction for water was also calculated from the survival rate before correction for water using formula (3) to take into account the permeability of the container.
Peptide solutions prepared by the same method as [Measuring sample preparation 1] for the peptides synthesized in Example 2 (peptides 13 to 16) were incubated for 2 weeks and 8 weeks in a thermostatic bath at 40° C. to obtain stored samples.
Peptide solutions prepared by the same method as [Measuring sample preparation 1] for the peptides synthesized in Example 2 (peptides 17 to 21) were incubated for 4 weeks in a thermostatic bath at 40° C. to obtain stored samples.
A peptide solution prepared by the same method as [Measuring sample preparation 1] for peptide 22 synthesized in Example 2 was incubated for 1 week and 4 weeks in a thermostatic bath at 40° C. to obtain stored samples.

[2] = as above; format: physicochemical; details: 100 μM peptide, 0.1% phosphate buffer pH 7.0, head prints 80° C., 8 weeks (Table 4)
VPAC1 receptor = target: T1, VPAC1 receptor (Homo sapiens, UniProt P32241); experiment: cAMP assay in CHO-K1 cells, VPAC1 receptor high-expressing cell line; format: cell-based; details: 30 minutes incubation
T1 construct: host or cells: CHO-K1
T1 sequence (P32241 31-457): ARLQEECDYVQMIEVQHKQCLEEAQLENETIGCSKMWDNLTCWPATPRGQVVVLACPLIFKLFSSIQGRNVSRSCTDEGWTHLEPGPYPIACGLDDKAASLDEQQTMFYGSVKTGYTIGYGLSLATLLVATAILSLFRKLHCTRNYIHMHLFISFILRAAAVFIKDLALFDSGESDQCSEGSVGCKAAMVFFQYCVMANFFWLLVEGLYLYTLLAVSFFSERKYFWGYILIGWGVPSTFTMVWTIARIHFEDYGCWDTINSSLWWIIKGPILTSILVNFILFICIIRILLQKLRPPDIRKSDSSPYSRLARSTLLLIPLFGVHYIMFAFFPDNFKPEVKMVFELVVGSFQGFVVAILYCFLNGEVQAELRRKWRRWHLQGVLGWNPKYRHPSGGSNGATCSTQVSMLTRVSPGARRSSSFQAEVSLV
Method: The cells were cultured for 18 to 24 hours at 37° C. in a 5% CO2 incubator, adhering the cells to the plate. […] A 5-fold dilution series was then prepared with the same Cell assay buffer and used in an assay. The cAMP assay was carried out using a Hit Hunter cAMP Assay for Biologics kit (product of DiscoveRx, Cat. No. 90-0075LM25), according to the included kit instructions. […] Next, the culture medium was removed from the CHO-K1 cell culture plate, washing was performed with PBS, and the peptide-cAMP antibody liquid mixtures were added to the cells and incubated for 30 minutes under a 5% CO2 atmosphere at 37° C. A working detection solution was then added and the culture plate was shielded from light with aluminum foil and incubated at 25° C. for 1 hour. After incubation, Solution A was added and the culture plate was shielded from light with aluminum foil and then incubated at 25° C. for 3 hours. […] The obtained value for the Relative Luminescence Unit (RLU) was analyzed with GraphPad Prism Ver 6.05 (product of Graph Pad) and the EC50 value was calculated for each peptide.

[3] = Stability test 1, sample preparation 5: survival rate of peptide in Tris buffer (pH 7.0) after storage, HPLC; format: physicochemical; details: 100 μM peptide; for survival rate after correction for water, 40° C. 4 week / survival rate after correction for water, 40° C. 8 week: Tris buffer pH 7.0, 40° C.; for survival rate after correction for water, 40° C. 4 week: 4 weeks (Table 13); for survival rate after correction for water, 40° C. 8 week: 8 weeks (Table 13); for survival rate after correction for water, 60° C. 1 week / survival rate after correction for water, 60° C. 2 week: Tris buffer pH 7.0, 60° C.; for survival rate after correction for water, 60° C. 1 week: 1 week (Table 13); for survival rate after correction for water, 60° C. 2 week: 2 weeks (Table 13)
Method: as §1
The prepared peptide solutions were incubated for 4 weeks or 8 weeks in a 40° C. thermostatic bath, and for one week or 2 weeks in a thermostatic bath at 60° C., to obtain stored samples.
The following gradient time was used only for peptide 30.

[4] = 100 μM peptide, Tris buffer pH 7.0, 60° C.
Method: The solution was filtered with a Chromatdisk (product of Merck Millipore, Millex-GV, 0.22 μm). The filtrate was diluted to 100 μM with Tris buffer (pH 7.0) and dispensed into a tube (Protein LoBind Tube by Eppendorf Co.). The prepared peptide solutions were incubated for 1 week or 2 weeks in a 60° C. thermostatic bath to obtain stored samples. A simultaneously prepared sample among the peptide solutions that was not stored was used as a standard sample (initial sample). The standard sample and the stored samples were stored at −30° C. until sample analysis.
• Column: XSelect CSH C18 by Waters Co., 5 μm, 4.6×250 mm • Guard column: XSelect CSH C18 by Waters Co., 5 μm, 4.6×20 mm Guard Cartridge • Detection wavelength: 220 nm • Mobile phase A: 0.1% formic acid aqueous solution • Mobile phase B: 0.1% acetonitrile formate solution • Measuring time: 20 minutes • Measuring sample injection rate: 50 μL • Flow rate: 1.0 mL/min • Column temperature: 40° C. • Sample cooler: 25° C. • Mobile phase delivery: The mixing ratio of mobile phase A and mobile phase B was varied as shown in Table 14 for linear concentration gradient control.

[5] = 0.1% phosphate buffer pH 7.0, 40° C., 4 weeks (Table 4)
[6] = phosphate buffer pH 7.0, 40° C., 4 weeks (Table 8)

SMILES	survival rate after correction for water, 40° C. 4 week [1, 5]	survival rate after correction for water, 80° C. 8 week [2]	survival rate after correction for water, 40° C. 4 week [1, 6]	EC50 (VPAC1 receptor)	survival rate after correction for water, 40° C. 4 week [3]	survival rate after correction for water, 40° C. 8 week [3]	survival rate after correction for water, 60° C. 1 week [3]	survival rate after correction for water, 60° C. 2 week [3]	further results
CC[C@H](C)[C@H](NC(=O)CNC(=O)C(Cc1nnn[nH]1)NC(=O)[C@H](CO)NC(=O)[C@@H](N)Cc1c[nH]cn1)C(=O)N[C@@H](Cc1ccccc1)C(=O)N[C@H](C(=O)NC(Cc1nnn[nH]1)C(=O)N[C@@H](CO)C(=O)N[C@@H](Cc1ccc(O)cc1)C(=O)N[C@@H](CO)C(=O)N[C@@H](CCCNC(=N)N)C(=O)N[C@@H](Cc1ccc(O)cc1)C(=O)N[C@@H](CCCNC(=N)N)C(=O)N[C@@H](CCCCN)C(=O)N[C@@H](CCC(N)=O)C(=O)N[C@@H](CCSC)C(=O)N[C@@H](C)C(=O)N[C@H](C(=O)N[C@@H](CCCCN)C(=O)N[C@@H](CCCCN)C(=O)N[C@@H](Cc1ccc(O)cc1)C(=O)N[C@@H](CC(C)C)C(=O)N[C@@H](C)C(=O)N[C@@H](C)C(=O)N[C@H](C(N)=O)C(C)C)C(C)C)[C@@H](C)O (stereo partly drawn) [Peptide 9, HSTzGI FTTzSY SRYRK QMAVK KYLAA V] (H-HS[ξAla(tetrazol-5-yl)]GIFT[ξAla(tetrazol-5-yl)]SYSRYRKQMAVKKYLAAV-NH2)	92.4%	83.3%							
CCCC[C@H](NC(=O)[C@H](CCC(N)=O)NC(=O)[C@H](CCCCN)NC(=O)[C@H](CCCNC(=N)N)NC(=O)[C@H](Cc1ccc(O)cc1)NC(=O)[C@H](CCCNC(=N)N)NC(=O)[C@H](CO)NC(=O)[C@H](Cc1ccc(O)cc1)NC(=O)[C@H](CO)NC(=O)[C@H](Cc1nnn[nH]1)NC(=O)[C@@H](NC(=O)[C@H](Cc1ccccc1)NC(=O)[C@@H](NC(=O)CNC(=O)[C@H](Cc1nnn[nH]1)NC(=O)[C@H](CO)NC(=O)[C@H](Cc1c[nH]cn1)NC(=O)CCC)[C@@H](C)CC)[C@@H](C)O)C(=O)N[C@@H](C)C(=O)N[C@H](C(=O)N[C@@H](CCCCN)C(=O)N[C@@H](CCCCN)C(=O)N[C@@H](Cc1ccc(O)cc1)C(=O)N[C@@H](CC(C)C)C(=O)N[C@@H](C)C(=O)N[C@@H](C)C(=O)N[C@H](C(=O)N[C@@H](CC(C)C)C(N)=O)C(C)C)C(C)C [Peptide 18] (Butyryl-HS[Ala(1H-tetrazol-5-yl)]GIFT[Ala(1H-tetrazol-5-yl)]SYSRYRKQ[Nle]AVKKYLAAVL-NH2)			65.1%	0.069 nM					
CCCC[C@H](NC(=O)[C@H](CCC(N)=O)NC(=O)[C@H](CCCCN)NC(=O)[C@H](CCCNC(=N)N)NC(=O)[C@H](Cc1ccc(O)cc1)NC(=O)[C@H](CCCNC(=N)N)NC(=O)[C@H](CO)NC(=O)[C@H](Cc1ccc(O)cc1)NC(=O)[C@H](CO)NC(=O)[C@H](Cc1nnn[nH]1)NC(=O)[C@@H](NC(=O)[C@H](Cc1ccccc1)NC(=O)[C@@H](NC(=O)CNC(=O)[C@H](Cc1nnn[nH]1)NC(=O)[C@H](CO)NC(=O)[C@H](Cc1c[nH]cn1)NC(=O)C(C)C)[C@@H](C)CC)[C@@H](C)O)C(=O)N[C@@H](C)C(=O)N[C@H](C(=O)N[C@@H](CCCCN)C(=O)N[C@@H](CCCCN)C(=O)N[C@@H](Cc1ccc(O)cc1)C(=O)N[C@@H](CC(C)C)C(=O)N[C@@H](C)C(=O)N[C@@H](C)C(=O)N[C@H](C(=O)N[C@@H](CC(C)C)C(N)=O)C(C)C)C(C)C [Peptide 19, HSTzGI FTTzSY SRYRK QNIAVK KYLAA VL] (Isobutyryl-HS[Ala(1H-tetrazol-5-yl)]GIFT[Ala(1H-tetrazol-5-yl)]SYSRYRKQ[Nle]AVKKYLAAVL-NH2)			68.7%	0.069 nM					
CC[C@H](C)[C@H](NC(=O)CNC(=O)[C@H](Cc1nnn[nH]1)NC(=O)[C@H](CO)NC(=O)[C@H](Cc1c[nH]cn1)NC(C)=O)C(=O)N[C@@H](Cc1ccccc1)C(=O)N[C@@H](C)C(=O)N[C@@H](Cc1nnn[nH]1)C(=O)N[C@@H](C)C(=O)N[C@@H](Cc1ccc(O)cc1)C(=O)N[C@@H](CO)C(=O)N[C@@H](CCCNC(=N)N)C(=O)N[C@@H](Cc1ccc(O)cc1)C(=O)N[C@@H](CCCNC(=N)N)C(=O)N[C@@H](CCCCN)C(=O)N[C@@H](CCC(N)=O)C(=O)N[C@@H](CC(C)C)C(=O)N[C@@H](C)C(=O)N[C@H](C(=O)N[C@@H](CCCCN)C(=O)N[C@@H](CCCCN)C(=O)N[C@@H](Cc1ccc(O)cc1)C(=O)N[C@@H](CC(C)C)C(=O)N[C@@H](C)C(=O)N[C@@H](C)C(=O)N[C@H](C(=O)N[C@@H](CC(C)C)C(N)=O)C(C)C)C(C)C [Peptide 27, HSTzGI FATzAY SRYRK QLAVK KYLAA VL] (Ac-HS[Ala(1H-tetrazol-5-yl)]GIFA[Ala(1H-tetrazol-5-yl)]AYSRYRKQLAVKKYLAAVL-NH2)				0.111 nM	90.9%	84.3%	97.3%	95.5%	
CC[C@H](C)[C@H](NC(=O)CNC(=O)[C@H](CC(=O)O)NC(=O)[C@H](CO)NC(=O)[C@@H](N)Cc1c[nH]cn1)C(=O)N[C@@H](Cc1ccccc1)C(=O)N[C@H](C(=O)N[C@@H](CC(=O)O)C(=O)N[C@@H](CO)C(=O)N[C@@H](Cc1ccc(O)cc1)C(=O)N[C@@H](CO)C(=O)N[C@@H](CCCNC(=N)N)C(=O)N[C@@H](Cc1ccc(O)cc1)C(=O)N[C@@H](CCCNC(=N)N)C(=O)N[C@@H](CCCCN)C(=O)N[C@@H](CCC(N)=O)C(=O)N[C@@H](CCSC)C(=O)N[C@@H](C)C(=O)N[C@H](C(=O)N[C@@H](CCCCN)C(=O)N[C@@H](CCCCN)C(=O)N[C@@H](Cc1ccc(O)cc1)C(=O)N[C@@H](CC(C)C)C(=O)N[C@@H](C)C(=O)N[C@@H](C)C(=O)N[C@H](C(=O)N[C@@H](CC(C)C)C(N)=O)C(C)C)C(C)C)[C@@H](C)O [Reference Example 1, reference compound]	37.4%	21.3%	23.9%		37.9%	15.6%	26.4%	14.6%	survival rate after correction for water, 40° C. 1 week ([1]; phosphate buffer pH 7.0, 40° C., 1 week (Table 10)): 74.9%; survival rate after correction for water, 40° C. 2 week ([1]; phosphate buffer pH 7.0, 40° C., 2 weeks (Table 6)): 64.3%; survival rate after correction for water, 40° C. 4 week ([1]; phosphate buffer pH 7.0, 40° C., 4 weeks (Table 10)): 33.0%; survival rate after correction for water, 40° C. 8 week ([1]; phosphate buffer pH 7.0, 40° C., 8 weeks (Table 6)): 23.7%; survival rate after correction for water, 60° C. 1 week preservation ([4]; 1 week): 26.6%; survival rate after correction for water, 60° C. 2 weeks preservation ([4]; 2 weeks): 15.8%
